Results on eleven compounds are retold here after PubChem BioAssay (NCI).

Each structure is given as a SMILES string. Values joined by “and” are separate entries in the source; they are usually repeats but may differ in a detail not shown here. Equal values may be shown once.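 Results reflect a 48-hour exposure of cells in 96-well plates to compound at five concentrations. GI50: concentration for 50% inhibition of growth. The concentration for full growth arrest is given as TGI.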

Test systems include CCRF-CEM leukemia; SW-620 colon; OVCAR-4 ovarian; UACC-257 melanoma; RPMI-8226 leukemia; SR leukemia; SK-MEL-2 melanoma; KM12 colon; SNB-75 CNS; MALME-3M melanoma.
What all share (assay): NCI-60 cell line screen, 48 h

Take `CN1C/C(=C\c2ccccc2[N+](=O)[O-])C(=O)/C(=C/c2ccccc2[N+](=O)[O-])C1`: the GI50 in the experiment on CCRF-CEM leukemia is 0.226 µM and 0.0611 µM; with SW-620 colon, 0.292 µM; in the experiment on OVCAR-4 ovarian it was 0.708 µM and 0.298 µM; in the experiment with UACC-257 melanoma, 0.265 µM and 1.46 µM; in the experiment with RPMI-8226 leukemia, 0.592 µM and 0.116 µM; in the experiment on MALME-3M melanoma, 1.29 µM and 0.216 µM. Also, the TGI with CCRF-CEM leukemia is 0.542 µM and 0.568 µM; with SW-620 colon, 0.886 µM and 0.603 µM; in the experiment on OVCAR-4 ovarian, 2.27 µM and 0.94 µM; in the experiment with UACC-257 melanoma, 0.481 µM and 3.5 µM; with SR leukemia, 13.2 µM and 7.93 µM; in the experiment with SK-MEL-2 melanoma, 8.87 µM and 4.36 µM. The TGI with KM12 colon is 4.65 µM and 2.63 µM; in the experiment on SNB-75 CNS it was 6.77 µM and 7.57 µM; with MALME-3M melanoma it was 2.73 µM and 0.505 µM.
With `O=C(O)CCCc1nc2c(n1-c1ccccc1)C(=O)c1ccccc1C2=O`, the TGI is above 100 µM with CCRF-CEM leukemia; above 100 µM in the experiment with SW-620 colon; 76.2 µM in the experiment with OVCAR-4 ovarian; above 100 µM in the experiment on UACC-257 melanoma; above 100 µM with RPMI-8226 leukemia; above 100 µM with SR leukemia. Moreover, the TGI is above 100 µM in the experiment with SK-MEL-2 melanoma, above 100 µM in the experiment on KM12 colon, above 100 µM in the experiment with SNB-75 CNS and 51.8 µM with MALME-3M melanoma.
For `COC(=O)CNC(=O)/C=C/[C@H](O[Si](C)(C)C(C)(C)C)[C@H](/C=C/C(=O)NCC(=O)OC)O[Si](C)(C)C(C)(C)C`, the TGI in the experiment on CCRF-CEM leukemia, with SW-620 colon, in the experiment with OVCAR-4 ovarian, with UACC-257 melanoma, in the experiment with RPMI-8226 leukemia and in the experiment on SR leukemia was above 25 µM in each case. In addition, the TGI with SK-MEL-2 melanoma, in the experiment on KM12 colon, in the experiment on SNB-75 CNS and in the experiment on MALME-3M melanoma was above 25 µM in each case.
`CC(C)[Si]1(C(C)C)OCC2OC(n3cnc4c(N)ncnc43)C(N)C2O[Si](C(C)C)(C(C)C)O1` (stereo not given): the TGI was above 71.6 µM in the experiment with CCRF-CEM leukemia; above 45.4 µM with SW-620 colon; above 100 µM in the experiment with OVCAR-4 ovarian; 32.4 µM in the experiment on UACC-257 melanoma; 7.72 µM in the experiment with RPMI-8226 leukemia; above 27.1 µM in the experiment with SR leukemia. For the same compound, the TGI with SK-MEL-2 melanoma was 24.6 µM; with KM12 colon, 16.6 µM; in the experiment on SNB-75 CNS, 25.1 µM; in the experiment with MALME-3M melanoma it was above 100 µM.
On to `COc1ccc(C=O)cc1Oc1ccc(C[C@H]2c3c(cc(OC)c4c3Oc3cc5c(cc3O4)CCN(C)C5=O)CCN2C)cc1`, for which the TGI turned out to be 22.1 µM in the experiment on CCRF-CEM leukemia; 30.9 µM with SW-620 colon; 17.7 µM in the experiment on OVCAR-4 ovarian; 17.6 µM with UACC-257 melanoma; 14.3 µM with RPMI-8226 leukemia; 21.7 µM in the experiment on SR leukemia. The TGI came out at 22.9 µM in the experiment on SK-MEL-2 melanoma, 17.1 µM in the experiment with KM12 colon, 14 µM with SNB-75 CNS and 20.2 µM in the experiment on MALME-3M melanoma.
As for `CCCCC(=C=C1CCCCC1O)C1CCCN1C(=O)OC(C)(C)C` (stereo not given), the TGI is 35 µM in the experiment on CCRF-CEM leukemia; 35.4 µM with SW-620 colon; 27.4 µM in the experiment on OVCAR-4 ovarian; 29.4 µM in the experiment on UACC-257 melanoma; 32.6 µM in the experiment on RPMI-8226 leukemia; above 100 µM in the experiment with SR leukemia. Besides, the TGI in the experiment on SK-MEL-2 melanoma was found to be 30 µM; in the experiment with KM12 colon, 31.5 µM; with SNB-75 CNS, 26.7 µM; with MALME-3M melanoma it was 31.6 µM.
Take `C=C1c2nc3ccccc3n2C=C(c2ccccc2)N1c1ccc(OC)cc1`: the TGI with CCRF-CEM leukemia, in the experiment with SW-620 colon, in the experiment on OVCAR-4 ovarian, with UACC-257 melanoma, in the experiment on RPMI-8226 leukemia and in the experiment on SR leukemia was above 100 µM each time. Also, the TGI in the experiment on SK-MEL-2 melanoma is above 100 µM; with KM12 colon, 24.3 µM; in the experiment on SNB-75 CNS, 21.2 µM; in the experiment with MALME-3M melanoma it was 44.8 µM.
For `CC(=O)c1nccc2c1c(C)nc1ccccc12`, the TGI in the experiment with CCRF-CEM leukemia is 68.6 µM; in the experiment on SW-620 colon it was above 100 µM; with OVCAR-4 ovarian, above 100 µM; with UACC-257 melanoma it was above 100 µM; in the experiment on RPMI-8226 leukemia it was 61 µM; with SR leukemia, above 100 µM. For the same compound, the TGI in the experiment with SK-MEL-2 melanoma, with KM12 colon, in the experiment on SNB-75 CNS and in the experiment with MALME-3M melanoma was above 100 µM each time.
Consider `COC1=CC2(C=CC1=O)CCN=c1c(O)c3c(c(O)c12)=NC=N3` (stereo not given), for which the TGI with CCRF-CEM leukemia, in the experiment on SW-620 colon, with OVCAR-4 ovarian, in the experiment with UACC-257 melanoma, in the experiment with RPMI-8226 leukemia and with SR leukemia was above 100 µM each time. The TGI in the experiment on SK-MEL-2 melanoma, with KM12 colon, in the experiment on SNB-75 CNS and in the experiment with MALME-3M melanoma was above 100 µM each time.
On to `O=C(O)CNC(=O)c1cccc2c(=O)c3ccccc3[nH]c12`, for which the TGI in the experiment on CCRF-CEM leukemia, in the experiment on SW-620 colon, with OVCAR-4 ovarian, in the experiment on UACC-257 melanoma, in the experiment on RPMI-8226 leukemia and in the experiment with SR leukemia was above 100 µM in each case. In addition, the TGI in the experiment with SK-MEL-2 melanoma is above 100 µM; with KM12 colon it was above 86.4 µM; in the experiment on SNB-75 CNS, above 100 µM; in the experiment with MALME-3M melanoma, above 100 µM.
Consider `O=C(O)c1ccccc1-c1ccccc1C(=O)c1ccccc1`, for which the TGI in the experiment on CCRF-CEM leukemia, with SW-620 colon, in the experiment on OVCAR-4 ovarian, in the experiment on UACC-257 melanoma, in the experiment on RPMI-8226 leukemia and with SR leukemia was above 100 µM in each case. In addition, the TGI in the experiment with SK-MEL-2 melanoma, with KM12 colon, with SNB-75 CNS and with MALME-3M melanoma was above 100 µM in each case.
